Laboratory results: patent US20180125856A1, “USE OF GLUCOCORTICOID RECEPTOR ANTAGONIST AND SOMATOSTATIN ANALOGUES TO TREAT ACTH-SECRETING TUMORS” (Corcept Therapeutics, Inc., priority 2015, published 2018)

Tested on: human patient with an ectopic ACTH-secreting pancreatic neuroendocrine tumor
Experiment: Tolerability in a patient
Type: in vivo
Conditions: week 20, octreotide LAR continued
Description: Mifepristone was resumed for an additional 12-month extension period. […] The collection of cortisol and ACTH data was less frequent during the extension study.

CC#C[C@]1(O)CC[C@H]2[C@@H]3CCC4=CC(=O)CCC4=C3[C@@H](c3ccc(N(C)C)cc3)C[C@@]21C [mifepristone, 17-β-hydrox-11-β-(4-dimethyl-aminophenyl)17-α-(1-propynyl)estra-4,9-dien-3-one]
adverse events for which the drug was briefly stopped: significant fatigue, low appetite, and nausea
